# Laboratory results from patent US4738971A, “N-aryl-1,2-dihydro-4-substituted-1-alkyl-2-oxo-quinoline-3-carboxamides” (priority 1981, dated 1988).
# Tests used:
# [1] = test system: carrageenan-induced edema; assay: carrageenan edema test in rats; type: in vivo, rat (female Sprague-Dawley); details: for change in vivo at 80 mg/kg: Rattus norvegicus, po, 80 mg/kg p.o., 30 min before carrageenan, edema weight 3 h after, vs control, preliminary, read-out: Potentiation of the carrageenan edema, %; for significant potentiation of the carrageenan edema: dose within the range 10-160 mg/kg p.o.
# From the text: Another test, in which the effect of a drug corresponds to the effects obtained in the tests mentioned above, and which can therefore also be used, is the well-established carrageenan edema test in rats (5). Comparative evaluation of compounds of the present invention in the three tests mentioned has shown that compounds which increase the extent of the delayed hypersensitivity reaction in the pertussis vaccine pleurisy test and in the adjuvant arthritis test also increase the extent of carrageenan-induced edema in the carrageenan edema test, thus providing a further tool for the determination of enhancement of cell-mediated immunity.
# This example illustrates the effect of the compounds of the general formula I in the carrageenan edema test in rats.
# A modification of a method described in (5) was used. Female Sprague-Dawleyrats weighing 110-120 g was used. At least 10 animals were used in each experimental group. Foot edema was induced by injecting carrageenan in 0.9% NaCl into the plantar surface of the right hind paw of the rats.
# The substances suspended in aqueous methocel solution 10 ml/kg were administered intragastrically 30 minutes before the injection of carrageenan. The control groups were given methocel solution 10 ml/kg.
# Three hours after carrageenan injection the animals were killed. The hind feet were cut off and weighed. The difference in weight of the injected right paw and the uninjected left paw was called edema weight.
# The effect of the substances was assessed by the edema weight expressed in percent after comparison with the control groups.
# [2] = test system: delayed hypersensitivity reaction (pertussis vaccine pleurisy); assay: pertussis vaccine pleurisy test in rats; type: in vivo, rat (male Sprague-Dawley); details: 10 mg/kg p.o.; for change in vivo at 10 mg/kg: Rattus norvegicus, po, 48 h, once daily day 10 to day 13, vs control, preliminary, read-out: Enhancement of the delayed hypersensitivity reaction assessed by the exudate vol.
# From the text: A useful test for the evaluation of the effect of chemical compounds on the immune system is the pertussis vaccine pleurisy test in rats. Compounds which enhance the response in this delayed hypersensitivity reaction are considered to stimulate cell-mediated immunity (4).
# This example illustrates the effect of the compounds of the general formula I in the pertussis vaccine pleurisy test.
# Pertussis vaccine pleurisy is a useful test for the evaluation of the effect of chemical compounds on the immune system. Compounds which enhance the response in this delayed hypersensitivity reaction are considered to stimulate cell-mediated immunity.
# A modification of a method described in (4) was used. Male Sprague-Dawley rats weighing 250-275 g were used. At least ten animals were used in each group.
# Equal volumes of Freund's incomplete adjuvant and a suspension of heat killed Bordetella pertussis organisms were mixed. To sensitize animals, day 0, 0.2 ml of a mixture containing 0.036×10^10 organisms/ml was injected into the dorsal surface of one hind paw and one forepaw.
# The animals were challenged on day 12 with 0.1 ml of a mixture containing 0.25×10^10 organisms/ml that was injected intrapleurally. 48 hours after challenge, day 14, the volume of the exudate in the pleural cavity was measured.
# The substances suspended in aqueous methocel solution 10 ml/kg were given intragastrically once daily from day 10 to day 13. The control groups were given methocel solution 10 ml/kg.
# The effect of the substances was assessed by the exudate volume expressed in percent after comparison with the control groups.
SMILES,significant enhancing effect in the pertussis vaccine pleurisy test [2],other results
"Cc1ccc2c(c1)c(O)c(C(=O)Nc1ccccc1)c(=O)n2C [1:46, N-phenyl-1,2-dihydro-1,6-dimethyl-4-hydroxy-2-oxo-quinoline-3-carboxamide]",,change in vivo at 80 mg/kg [1]: 32%
"CN(C(=O)c1c(O)c2ccccc2n(C)c1=O)c1ccc(N2CCCC2)cc1 [20:21, N-methyl-N-/4-pyrrolidinophenyl/-1,2-dihydro-4-hydroxy-1-methyl-2-oxo-quinoline-3-carboxamide]",significant enhancing effect,
"CCNc1ccc(NC(=O)c2c(O)c3ccccc3n(C)c2=O)cc1 [1:45, N-(4-ethylaminophenyl)-1,2-dihydro-4-hydroxy-1-methyl-2-oxo-quinoline-3-carboxamide]",,change in vivo at 80 mg/kg [1]: 47%
"CCN(CC)c1ccc(NC(=O)c2c(O)c3ccccc3n(C)c2=O)cc1 [1:23, N-/4-diethylaminophenyl/-1,2-dihydro-4-hydroxy-1-methyl-2-oxo-quinoline-3-carboxamide]",,change in vivo at 80 mg/kg [1]: 29%
"Cc1ccc(-n2c(=O)c(C(=O)Nc3ccccc3)c(O)c3ccccc32)cc1 [1:50, N-phenyl-1,2-dihydro-4-hydroxy-1-(4-methylphenyl)-2-oxo-quinoline-3-carboxamide]",,change in vivo at 10 mg/kg [2]: 46%
"COc1c(C(=O)Nc2ccc(N(C)C)cc2)c(=O)n(C)c2ccccc12 [6:3, N-(4-dimethylaminophenyl)-1,2-dihydro-4-methoxy-1-methyl-2-oxo-quinoline-3-carboxamide]",,change in vivo at 80 mg/kg [1]: 32%
"O=C(Nc1cnccn1)c1c(O)c2cccc3c2n(c1=O)CC3 [14:9, N-pyrazinyl-1,2-dihydro-1,8-ethylene-4-hydroxy-2-oxo-quinoline-3-carboxamide]",,change in vivo at 80 mg/kg [1]: 21%
"CCOc1c(C(=O)Nc2ccc(N(C)C)cc2)c(=O)n2c3c(cccc13)CC2 [18:3, N-(4-dimethylaminophenyl)-1,2-dihydro-4-ethoxy-1,8-ethylene-2-oxo-quinoline-3-carboxamide]",,significant potentiation of the carrageenan edema [1]: potentiate significantly
"Cc1cc(NC(=O)c2c(O)c3ccccc3n(C)c2=O)sn1 [7:28, N-(3-methyl-5-isothiazolyl)-1,2-dihydro-4-hydroxy-1-methyl-2-oxo-quinoline-3-carboxamide]",,change in vivo at 10 mg/kg [2]: 61%
"CN(C(=O)c1c(O)c2cccc3c2n(c1=O)CCC3)c1ccc(F)cc1 [19:2, N-(4-fluorophenyl)-N-methyl-1,2-dihydro-hydroxy-2-oxo-1,8-trimethylene-quinoline-3-carboxamide]",significant enhancing effect,
"Cc1csc(NC(=O)c2c(O)c3cc(N(C)C)cc4c3n(c2=O)CCC4)n1 [14:7, N-(4-methyl-2-thiazolyl)-1,2-dihydro-6-dimethylamino-4-hydroxy-2-oxo-1,8-trimethylene-quinoline-3-carboxamide]",,significant potentiation of the carrageenan edema [1]: potentiate significantly
"COCCN(C(=O)c1c(O)c2ccccc2n(C)c1=O)c1cnccn1 [20:54, N-(2-methoxy-ethyl)-N-pyrazinyl-1,2-dihydro-4-hydroxy-1-methyl-2-oxo-quinoline-3-carboxamide]",significant enhancing effect,
"CN(C(=O)c1c(O)c2cccc3c2n(c1=O)CCC3)c1ccccc1 [19:1, N-methyl-N-phenyl-1,2-dihydro-4-hydroxy-2-oxo-1,8-trimethylene-quinoline-3-carboxamide]",significant enhancing effect,
"CN(C)c1ccc(NC(=O)c2c(O)c3cccc4c3n(c2=O)CCC4)cc1 [13:7, N-(4-dimethylaminophenyl)-1,2-dihydro-4-hydroxy-2-oxo-1,8-trimethylene-quinoline-3-carboxamide]",,change in vivo at 10 mg/kg [2]: 21%
"CN(C(=O)c1c(N)c2ccccc2n(C)c1=O)c1ccccc1 [10:5, N-methyl-N-phenyl-4-amino-1,2-dihydro-1-methyl-2-oxo-quinoline-3-carboxamide]",significant enhancing effect,
"CN(C(=O)c1c(O)c2ccccc2n(C)c1=O)c1ccc(C(=O)O)cc1 [21:13, N-(4-carboxyphenyl)-N-methyl-1,2-dihydro-4-hydroxy-1-methyl-2-oxo-quinoline-3-carboxamide]",significant enhancing effect,
"Cn1c(=O)c(C(=O)Nc2ccc(O)cc2)c(O)c2ccccc21 [1:13, N-/4-hydroxyphenyl/-1,2-dihydro-4-hydroxy-1-methyl-2-oxo-quinoline-3-carboxamide]",significant enhancing effect,
"CN(C(=O)c1c(O)c2ccccc2n(C)c1=O)c1ncc[nH]1 [20:74, N-(2-imidazolyl)-N-methyl-1,2-dihydro-4-hydroxy-1-methyl-2-oxo-quinoline-3-carboxamide]",significant enhancing effect,
"Nc1c(C(=O)Nc2ccccc2)c(=O)n2c3c(cccc13)CC2 [10:20, N-phenyl-4-amino-1,2-dihydro-1,8-ethylene-2-oxo-quinoline-3-carboxamide]",significant enhancing effect,
"CN(C(=O)c1c(N)c2ccccc2n(C)c1=O)c1ccc(Cl)cc1 [10:13, N-(4-chlorophenyl)-N-methyl-4-amino-1,2-dihydro-1-methyl-2-oxo-quinoline-3-carboxamide]",significant enhancing effect,
"O=C(Nc1cnccn1)c1c(O)c2cccc3c2n(c1=O)CCC3 [14:17, N-pyrazinyl-1,2-dihydro-4-hydroxy-2-oxo-1,8-trimethylene-quinoline-3-carboxamide]",,change in vivo at 10 mg/kg [2]: 27%
"Cc1cc(N(C)C(=O)c2c(O)c3ccccc3n(C)c2=O)sn1 [20:78, N-methyl-N-(3-methyl-5-isothiazolyl)-1,2-dihydro-4-hydroxy-1-methyl-2-oxo-quinoline-3-carboxamide]",significant enhancing effect,
"C=CCn1c(=O)c(C(=O)N(C)c2ccccc2)c(O)c2ccccc21 [20:1, N-methyl-N-phenyl-1,2-dihydro-1-allyl-4-hydroxy-2-oxo-quinoline-3-carboxamide]",significant enhancing effect,
"CCN(CC)c1ccc(N(C)C(=O)c2c(O)c3ccccc3n(C)c2=O)cc1 [20:20, N-methyl-N-/4-diethylaminophenyl/-1,2-dihydro-4-hydroxy-1-methyl-2-oxo-quinoline-3-carboxamide]",significant enhancing effect,
"CNc1c(C(=O)N(C)c2ccccc2)c(=O)n(C)c2ccccc12 [10:6, N-methyl-N-phenyl-1,2-dihydro-1-methyl-4-methylamino-2-oxo-quinoline-3-carboxamide]",significant enhancing effect,
"CN(C(=O)c1c(N)c2ccccc2n(C)c1=O)c1nccs1 [10:17, N-methyl-N-(2-thiazolyl)-4-amino-1,2-dihydro-1-methyl-2-oxo-quinoline-3-carboxamide]",significant enhancing effect,
"COc1ccc2c(c1)c(O)c(C(=O)N(C)c1ccc(Cl)cc1)c(=O)n2C [20:4, N-(4-chloro-phenyl)-N-methyl-1,2-dihydro-4-hydroxy-6-methoxy-1-methyl-2-oxo-quinoline-3-carboxamide]",significant enhancing effect,
"COc1ccc(N(C)C(=O)c2c(N)c3ccccc3n(C)c2=O)cc1 [10:12, N-(4-methoxyphenyl)-N-methyl-4-amino-1,2-dihydro-1-methyl-2-oxo-quinoline-2-carboxamide]",significant enhancing effect,
"CN(C(=O)c1c(O)c2ccc(Cl)cc2n(C)c1=O)c1ccccc1 [20:2, N-methyl-N-phenyl-7-chloro-1,2-dihydro-4-hydroxy-1-methyl-2-oxo-quinoline-3-carboxamide]",significant enhancing effect,
"CN(C)c1ccc2c(c1)c(O)c(C(=O)N(C)c1ccccc1)c(=O)n2C [20:3, N-methyl-N-phenyl-1,2-dihydro-6-dimethylamino-4-hydroxy-1-methyl-2-oxo-quinoline-3-carboxamide]",significant enhancing effect,
